Source: patent US6372446B1, “Method of selectively determining a fungal biomass” (Mycometer ApS, priority 1997, dated 2002)

Key:
Assay in all cases: Screening of fungi for enzyme activity with 4-methylumbelliferone-labelled substrates
Format in all cases: cell-based
[1] = tested on: Aureobasidium pullulans (QM 3092); details: substrate 10 μM, 25° C., pH 5; for Enzyme activity: amount of released 4-methylumbelliferone during 5 hours of incubation: Aureobasidium pulluians (QM 3092), vegetable juice medium; for Enzyme activity: amount of released 4-methylumbelliferone: Aureobasidium pullulans (QM 3092), mineral medium
[2] = tested on: Paecilomyces farinosus (AGM 5); details: substrate 10 μM, 25° C., pH 5; for Enzyme activity: amount of released 4-methylumbelliferone: mineral medium; for Enzyme activity: amount of released 4-methylumbelliferone during 5 hours of incubation: vegetable juice medium
[3] = tested on: Cladosporium herbarum (AGM 8); details: substrate 10 μM, 25° C., pH 5; for Enzyme activity: amount of released 4-methylumbelliferone: mineral medium; for Enzyme activity: amount of released 4-methylumbelliferone during 5 hours of incubation: vegetable juice medium
[4] = tested on: Penicillium commune (IBT 13713); details: substrate 10 μM, 25° C., pH 5; for Enzyme activity: amount of released 4-methylumbelliferone: mineral medium; for Enzyme activity: amount of released 4-methylumbelliferone during 5 hours of incubation: vegetable juice medium
[5] = tested on: Penicillium solitum (IBT 13771); details: substrate 10 μM, 25° C., pH 5; for Enzyme activity: amount of released 4-methylumbelliferone: mineral medium; for Enzyme activity: amount of released 4-methylumbelliferone during 5 hours of incubation: vegetable juice medium
[6] = tested on: Aspergillus oryzae (AGM 11); details: substrate 10 μM, 25° C., pH 5; for Enzyme activity: amount of released 4-methylumbelliferone: mineral medium; for Enzyme activity: amount of released 4-methylumbelliferone during 5 hours of incubation: vegetable juice medium
[7] = tested on: Mucor racemosus (AAS 310); details: substrate 10 μM, 25° C., pH 5; for Enzyme activity: amount of released 4-methylumbelliferone: mineral medium; for Enzyme activity: amount of released 4-methylumbelliferone during 5 hours of incubation: vegetable juice medium
[8] = tested on: Ascobolus crenulatus (AAS 1); details: substrate 10 μM, 25° C., pH 5; for Enzyme activity: amount of released 4-methylumbelliferone: mineral medium; for Enzyme activity: amount of released 4-methylumbelliferone during 5 hours of incubation: vegetable juice medium
[9] = tested on: Trametes versicolor (AGM 24); details: substrate 10 μM, 25° C., pH 5; for Enzyme activity: amount of released 4-methylumbelliferone: mineral medium; for Enzyme activity: amount of released 4-methylumbelliferone during 5 hours of incubation: vegetable juice medium
[10] = tested on: Rhizomucor pusillus (AAS 300); details: substrate 10 μM, 25° C., pH 5; for Enzyme activity: amount of released 4-methylumbelliferone: mineral medium; for Enzyme activity: amount of released 4-methylumbelliferone during 5 hours of incubation: vegetable juice medium
[11] = tested on: Schizophyllum commune (AGM 25); details: substrate 10 μM, 25° C., pH 5; for Enzyme activity: amount of released 4-methylumbelliferone: mineral medium; for Enzyme activity: amount of released 4-methylumbelliferone during 5 hours of incubation: vegetable juice medium
[12] = tested on: Sodaria fimicola (AAS 17); details: substrate 10 μM, 25° C., pH 5; for Enzyme activity: amount of released 4-methylumbelliferone: mineral medium; for Enzyme activity: amount of released 4-methylumbelliferone during 5 hours of incubation: vegetable juice medium
Eurotium sp. (AAS 36) = details: substrate 10 μM, 25° C., pH 5; for Enzyme activity: amount of released 4-methylumbelliferone: mineral medium; for Enzyme activity: amount of released 4-methylumbelliferone during 5 hours of incubation: vegetable juice medium
[13] = tested on: Aspergillus versicolor (IBT 13738); details: substrate 10 μM, 25° C., pH 5; for Enzyme activity: amount of released 4-methylumbelliferone: mineral medium; for Enzyme activity: amount of released 4-methylumbelliferone during 5 hours of incubation: vegetable juice medium

| Enzyme activity: amount of released 4-methylumbelliferone during 5 hours of incubation [1] | Enzyme activity: amount of released 4-methylumbelliferone [1] | Enzyme activity: amount of released 4-methylumbelliferone [2] | Enzyme activity: amount of released 4-methylumbelliferone during 5 hours of incubation [2] | Enzyme activity: amount of released 4-methylumbelliferone [3] | Enzyme activity: amount of released 4-methylumbelliferone during 5 hours of incubation [3] | Enzyme activity: amount of released 4-methylumbelliferone [4] | Enzyme activity: amount of released 4-methylumbelliferone during 5 hours of incubation [4] | Enzyme activity: amount of released 4-methylumbelliferone [5] | Enzyme activity: amount of released 4-methylumbelliferone during 5 hours of incubation [5] | Enzyme activity: amount of released 4-methylumbelliferone [6] | Enzyme activity: amount of released 4-methylumbelliferone during 5 hours of incubation [6] | Enzyme activity: amount of released 4-methylumbelliferone [7] | Enzyme activity: amount of released 4-methylumbelliferone during 5 hours of incubation [7] | Enzyme activity: amount of released 4-methylumbelliferone [8] | Enzyme activity: amount of released 4-methylumbelliferone during 5 hours of incubation [8] | Enzyme activity: amount of released 4-methylumbelliferone [9] | Enzyme activity: amount of released 4-methylumbelliferone during 5 hours of incubation [9] | Enzyme activity: amount of released 4-methylumbelliferone [10] | Enzyme activity: amount of released 4-methylumbelliferone during 5 hours of incubation [10] | SMILES | other results |
| --- | --- | --- | --- | --- | --- | --- | --- | --- | --- | --- | --- | --- | --- | --- | --- | --- | --- | --- | --- | --- | --- |
| 0 µmol | 0 µmol | 0 µmol | 0 µmol | 0 µmol | 0 µmol | 0 µmol | 0 µmol | 0 µmol | 0 µmol | 0 µmol | 0 µmol | * (0.4 ≦ * < 1) | * (0.4 ≦ * < 1) | 0 µmol | 0 µmol | 0 µmol | 0 µmol | 0 µmol | 0 µmol | CC(=O)N[C@H]1[C@H](Oc2ccc3c(C)cc(=O)oc3c2)O[C@H](COS(=O)(=O)O)[C@@H](O)[C@@H]1O [substrate 1, 4-methylumbelliferyl 7-6(sulfo-2-acetamido-2-deoxy-β-D-glucopyranoside)] | Enzyme activity: amount of released 4-methylumbelliferone [11]: * (0.4 ≦ * < 1); Enzyme activity: amount of released 4-methylumbelliferone during 5 hours of incubation [11]: 0 µmol; Enzyme activity: amount of released 4-methylumbelliferone [12]: 0 µmol; Enzyme activity: amount of released 4-methylumbelliferone during 5 hours of incubation [12]: 0 µmol; Enzyme activity: amount of released 4-methylumbelliferone (Eurotium sp. (AAS 36)): 0 µmol; Enzyme activity: amount of released 4-methylumbelliferone during 5 hours of incubation (Eurotium sp. (AAS 36)): 0 µmol; Enzyme activity: amount of released 4-methylumbelliferone [13]: 0 µmol; Enzyme activity: amount of released 4-methylumbelliferone during 5 hours of incubation [13]: 0 µmol |
| ** (1 ≦ ** 2) | 0 µmol | 0 µmol | 0 µmol | 0 µmol | 0 µmol | 0 µmol | * (0.4 ≦ * < 1) | 0 µmol | 0 µmol | 0 µmol | *** (2 ≦ ***) | 0 µmol | ** (1 ≦ ** 2) | 0 µmol | * (0.4 ≦ * < 1) | 0 µmol | 0 µmol | 0 µmol | 0 µmol | Cc1cc(=O)oc2cc(O[C@@H]3O[C@H](CO)[C@@H](O)[C@H](O)[C@@H]3O)ccc12 [substrate 6, 4-methylumbelliferyl β-D-mannopyranoside] | Enzyme activity: amount of released 4-methylumbelliferone [11]: 0 µmol; Enzyme activity: amount of released 4-methylumbelliferone during 5 hours of incubation [11]: *** (2 ≦ ***); Enzyme activity: amount of released 4-methylumbelliferone [12]: 0 µmol; Enzyme activity: amount of released 4-methylumbelliferone during 5 hours of incubation [12]: *** (2 ≦ ***); Enzyme activity: amount of released 4-methylumbelliferone (Eurotium sp. (AAS 36)): 0 µmol; Enzyme activity: amount of released 4-methylumbelliferone during 5 hours of incubation (Eurotium sp. (AAS 36)): 0 µmol; Enzyme activity: amount of released 4-methylumbelliferone [13]: 0 µmol; Enzyme activity: amount of released 4-methylumbelliferone during 5 hours of incubation [13]: 0 µmol |
